Test results as given in patent US6770597B2, “Benzohydrazide derivatives as herbicides and desiccant compositions containing them” (Ishihara Sangyo Kaisha, Ltd., priority 2002, dated 2004).

How the values were obtained:
Format in all cases: in vivo
[1] = test system: field corn (Zea mays L., var. Dekalb 535, CORN); experiment: Greenhouse herbicide screen, post-emerge application, crop damage rating; conditions: POST emergent, 14 days after application, scale 0-100
Method in brief: (§1)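 Scoring at 14 days used a 0–100 scale, 100 being all plants dead, for weed control and crop injury alike. Rates ranged from 15 to 1000 g ai/ha, applied in acetone at 187 l/ha by track sprayer. Post-emerge treatment hit 2–3 leaf plants; pre-emerge treatment hit soil seeded one day earlier.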

[2] = test system: upland rice (Oryza sp., var.Cocodrie, RICE); experiment: as above; conditions: POST emergent, 14 days after application, scale 0-100
Method in brief: as §1

[3] = test system: field corn (Zea mays L., var. Dekalb 535, CORN); experiment: Greenhouse herbicide screen, pre-emerge application, crop damage rating; conditions: PRE emergent, 14 days after application, rating scale 0-100
Method in brief: as §1

[4] = test system: upland rice (Oryza sp., var.Cocodrie, RICE); experiment: as above; conditions: PRE emergent, 14 days after application, rating scale 0-100
Method in brief: as §1

[5] = test system: barnyardgrass (Echinochloa crus-galli, ECHCG); experiment: Greenhouse herbicide screen, pre-emerge application, phytotoxicity rating; conditions: PRE emergent, 14 days after application, rating scale 0-100
Method in brief: as §1

[6] = test system: redroot pigweed (Amaranthus retrofiexus, AMARE); experiment: as above; conditions: PRE emergent, 14 days after application, rating scale 0-100
Method in brief: as §1

[7] = test system: common ragweed (Ambrosia artemisiifolia L., AMBEL); experiment: as above; conditions: PRE emergent, 14 days after application, rating scale 0-100
Method in brief: as §1

[8] = test system: sicklepod (Cassia obtusifolia, CASOB); experiment: as above; conditions: PRE emergent, 14 days after application, rating scale 0-100
Method in brief: as §1

[9] = test system: green foxtail (Setaria viridis, SETVI); experiment: as above; conditions: PRE emergent, 14 days after application, rating scale 0-100
Method in brief: as §1

[10] = test system: velvetleaf (Abutilon theophrasti, ABUTH); experiment: as above; conditions: PRE emergent, 14 days after application, rating scale 0-100
Method in brief: as §1

[11] = test system: johnsongrass (Sorghum halepense, SORHA); experiment: as above; conditions: PRE emergent, 14 days after application, rating scale 0-100
Method in brief: as §1

[12] = test system: large crabgrass (Digitaria sanguinalis, DIGSA); experiment: as above; conditions: PRE emergent, 14 days after application, rating scale 0-100
Method in brief: as §1

[13] = test system: ivyleaf morningglory (Ipomoea hederacea, IPOHE); experiment: as above; conditions: PRE emergent, 14 days after application, rating scale 0-100
Method in brief: as §1

[14] = test system: cocklebur (Xanthium strumarium, XANST); experiment: as above; conditions: PRE emergent, 14 days after application, rating scale 0-100
Method in brief: as §1

[15] = test system: lambsquarters (Chenopodium album, CHEAL); experiment: as above; conditions: PRE emergent, 14 days after application, rating scale 0-100
Method in brief: as §1

[16] = test system: barnyardgrass (Echinochloa crus-galli, ECHCG); experiment: Greenhouse herbicide screen, post-emerge application, phytotoxicity rating; conditions: POST emergent, 14 days after application, scale 0-100
Method in brief: as §1

[17] = test system: redroot pigweed (Amaranthus retrofiexus, AMARE); experiment: as above; conditions: POST emergent, 14 days after application
Method in brief: as §1

[18] = test system: common ragweed (Ambrosia artemisiifolia L., AMBEL); experiment: as above; conditions: POST emergent, 14 days after application, scale 0-100
Method in brief: as §1

[19] = test system: sicklepod (Cassia obtusifolia, CASOB); experiment: as above; conditions: POST emergent, 14 days after application, scale 0-100
Method in brief: as §1

[20] = test system: green foxtail (Setaria viridis, SETVI); experiment: as above; conditions: POST emergent, 14 days after application, scale 0-100
Method in brief: as §1

[21] = test system: velvetleaf (Abutilon theophrasti, ABUTH); experiment: as above; conditions: POST emergent, 14 days after application, scale 0-100
Method in brief: as §1

[22] = test system: johnsongrass (Sorghum halepense, SORHA); experiment: as above; conditions: POST emergent, 14 days after application, scale 0-100
Method in brief: as §1

[23] = test system: large crabgrass (Digitaria sanguinalis, DIGSA); experiment: as above; conditions: POST emergent, 14 days after application, scale 0-100
Method in brief: as §1

[24] = test system: ivyleaf morningglory (Ipomoea hederacea, IPOHE); experiment: as above; conditions: POST emergent, 14 days after application, scale 0-100
Method in brief: as §1

[25] = test system: cocklebur (Xanthium strumarium, XANST); experiment: as above; conditions: POST emergent, 14 days after application, scale 0-100
Method in brief: as §1

[26] = test system: lambsquarters (Chenopodium album, CHEAL); experiment: as above; conditions: POST emergent, 14 days after application, scale 0-100
Method in brief: as §1

Structure (SMILES): Cn1c(C(F)(F)F)cc(=O)n(-c2cc(C(=O)NN(Cc3ccccc3)Cc3ccccc3)c(Cl)cc2F)c1=O [Compound 1-29]
- crop damage rating CORN ([1]; 63 g ai/ha): 10
- crop damage rating CORN ([1]; 250 g ai/ha): 50
- crop damage rating RICE ([2]; 63 g ai/ha): 0
- crop damage rating RICE ([2]; 250 g ai/ha): 10
- crop damage rating CORN ([3]; 63 g ai/ha): 10
- crop damage rating CORN ([3]; 250 g ai/ha): 50
- crop damage rating RICE ([4]; 63 g ai/ha): 0
- crop damage rating RICE ([4]; 250 g ai/ha): 10
- phytotoxicity rating ECHCG ([5]; 63 g ai/ha): 55
- phytotoxicity rating ECHCG ([5]; 250 g ai/ha): 100
- phytotoxicity rating AMARE ([6]; 63 g ai/ha): 100
- phytotoxicity rating AMARE ([6]; 250 g ai/ha): 100
- phytotoxicity rating AMBEL ([7]; 63 g ai/ha): 75
- phytotoxicity rating AMBEL ([7]; 250 g ai/ha): 100
- phytotoxicity rating CASOB ([8]; 63 g ai/ha): 50
- phytotoxicity rating CASOB ([8]; 250 g ai/ha): 100
- phytotoxicity rating SETVI ([9]; 63 g ai/ha): 99
- phytotoxicity rating SETVI ([9]; 250 g ai/ha): 100
- phytotoxicity rating ABUTH ([10]; 63 g ai/ha): 100
- phytotoxicity rating ABUTH ([10]; 250 g ai/ha): 100
- phytotoxicity rating SORHA ([11]; 63 g ai/ha): 99
- phytotoxicity rating SORHA ([11]; 250 g ai/ha): 100
- phytotoxicity rating DIGSA ([12]; 63 g ai/ha): 85
- phytotoxicity rating DIGSA ([12]; 250 g ai/ha): 100
- phytotoxicity rating IPOHE ([13]; 63 g ai/ha): 90
- phytotoxicity rating IPOHE ([13]; 250 g ai/ha): 100
- phytotoxicity rating XANST ([14]; 63 g ai/ha): 0
- phytotoxicity rating XANST ([14]; 250 g ai/ha): 90
- phytotoxicity rating CHEAL ([15]; 63 g ai/ha): 100
- phytotoxicity rating CHEAL ([15]; 250 g ai/ha): 100
- phytotoxicity rating ECHCO ([16]; 63 g ai/ha): 55
- phytotoxicity rating ECHCO ([16]; 250 g ai/ha): 100
- phytotoxicity rating AMARE ([17]; 63 g ai/ha, scale 0-100 (0 no damage, 100 complete death)): 100
- phytotoxicity rating AMARE ([17]; 250 g ai/ha, scale 0-100): 100
- phytotoxicity rating AMBEL ([18]; 63 g ai/ha): 75
- phytotoxicity rating AMBEL ([18]; 250 g ai/ha): 100
- phytotoxicity rating CASOB ([19]; 63 g ai/ha): 50
- phytotoxicity rating CASOB ([19]; 250 g ai/ha): 100
- phytotoxicity rating SETVI ([20]; 63 g ai/ha): 99
- phytotoxicity rating SETVI ([20]; 250 g ai/ha): 100
- phytotoxicity rating ABUTH ([21]; 63 g ai/ha): 100
- phytotoxicity rating ABUTH ([21]; 250 g ai/ha): 100
- phytotoxicity rating SORHA ([22]; 63 g ai/ha): 99
- phytotoxicity rating SORHA ([22]; 250 g ai/ha): 100
- phytotoxicity rating DIGSA ([23]; 63 g ai/ha): 85
- phytotoxicity rating DIGSA ([23]; 250 g ai/ha): 100
- phytotoxicity rating IPOHE ([24]; 63 g ai/ha): 90
- phytotoxicity rating IPOHE ([24]; 250 g ai/ha): 100
- phytotoxicity rating XANST ([25]; 63 g ai/ha): 0
- phytotoxicity rating XANST ([25]; 250 g ai/ha): 90
- phytotoxicity rating CHEAL ([26]; 63 g ai/ha): 100
- phytotoxicity rating CHEAL ([26]; 250 g ai/ha): 100
